Data set [1] in a line: Aqueous solubility in PBS (pH 7.4). Format: physicochemical. The following applies: for solubility thermodynamic: PBS, Table S2, pH 7.4, n = 2, * below lower limit of quantification, read-out: Thermodynamic Solubility @ RT; for solubility: Table 3, PBS pH 7.4. The protocol: (§1) Selected compounds were routinely screened for aqueous solubility in PBS (pH 7.4), transit performance in MDCK-MDR1 cell lines for permeability, and metabolic stability in MLM and HLM as a measure of clearance. The main metabolites and routes of metabolism of 4y were determined in MLM. Assay protocols and additional data are presented in the Supplementary Material (Tables S1–S7). ADME studies reported in this work were performed by WuXi AppTec (Shanghai, China).
(§2) Representative assay protocols have been described in detail. ^1,2

The nature of data set [2]: Stability in mouse liver microsomes. Format: in vitro ADME. Particulars: for microsomal CLint at 1 h: Table 3, read-out: MLM Clint; for half-life: mouse, read-out: MLM Stability t1/2. The procedure: as §1, §2
(Liver microsomes are a subcellular fraction often used to study metabolism.)

Data set [3] has as its target T1, Notum (core, 81–451C330S) (Homo sapiens, UniProt Q6P988, C330S).
T1 construct: high-throughput biochemical assay with Notum (81–451C330S) and OPTS as a synthetic fluorescent substrate; made in house
T1 sequence (Q6P988 81-451 C330S): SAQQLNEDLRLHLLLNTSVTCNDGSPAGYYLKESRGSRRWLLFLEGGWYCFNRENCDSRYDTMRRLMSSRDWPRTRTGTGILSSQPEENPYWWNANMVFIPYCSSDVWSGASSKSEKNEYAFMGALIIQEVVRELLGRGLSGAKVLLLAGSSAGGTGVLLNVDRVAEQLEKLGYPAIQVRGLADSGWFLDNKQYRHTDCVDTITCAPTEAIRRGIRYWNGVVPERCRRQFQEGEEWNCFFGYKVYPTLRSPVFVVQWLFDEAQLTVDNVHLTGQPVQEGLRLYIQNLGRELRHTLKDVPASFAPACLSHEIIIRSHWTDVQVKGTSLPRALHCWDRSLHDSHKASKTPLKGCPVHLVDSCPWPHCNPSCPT
Kind of data set: Notum-OPTS biochemical assay, Notum (81–451C330S). The procedure: Notum inhibitors 3–5 (Table 1, Table 2, Table 3, Table 4) were either purchased or prepared using established synthetic methods from readily available starting materials (Scheme 1). Where necessary, the synthesis of many of these amines (e.g. 6) have been reported previously and full details of their preparation have been included in the Experimental Section. Notum inhibition activity was determined using the standard Notum-OPTS biochemical assay using IC50 values. These values were used to compare relative activities with covalent inhibitors under carefully regulated assay conditions. […] Selected inhibitors were screened for inhibition of Notum activity in a TCF/LEF Reporter (Luciferase) cell line with exogenous WNT3a and Notum, and soaked into Notum crystals to determine their binding modes and evidence of MoA.
(§3) Methods have been described in detail.

Data set [4] relates to TCF/LEF Reporter (Luciferase) cell line. Kind of data set: TCF/LEF reporter (Luciferase) assay with WNT3A in the absence of Notum. Type of data set: cell-based. The following applies: up to 10 μM. The protocol:
(§4) Early leads 4v, 4w and 4y were then evaluated in additional pharmacology and ADME screens (Table 3). […] Screening 4w and 4y in the biochemical assay using full length Notum and OPTS confirmed potent inhibition of Notum activity.
Figure S4D. Notum TCF/LEF reporter (Luciferase) data with WNT3A (200 ng/mL) in the absence of Notum. Representative response-concentration curves are for 4w (2 of 6 shown) from a larger data set for compounds 3-5. Examples are from different screening runs.

The target of data set [5] is T2, Notum (Homo sapiens, UniProt Q6P988).
T2 construct: host or cells: TCF/LEF Reporter (Luciferase) cell line; Notum added exogenously
T2 sequence (Q6P988 20-496): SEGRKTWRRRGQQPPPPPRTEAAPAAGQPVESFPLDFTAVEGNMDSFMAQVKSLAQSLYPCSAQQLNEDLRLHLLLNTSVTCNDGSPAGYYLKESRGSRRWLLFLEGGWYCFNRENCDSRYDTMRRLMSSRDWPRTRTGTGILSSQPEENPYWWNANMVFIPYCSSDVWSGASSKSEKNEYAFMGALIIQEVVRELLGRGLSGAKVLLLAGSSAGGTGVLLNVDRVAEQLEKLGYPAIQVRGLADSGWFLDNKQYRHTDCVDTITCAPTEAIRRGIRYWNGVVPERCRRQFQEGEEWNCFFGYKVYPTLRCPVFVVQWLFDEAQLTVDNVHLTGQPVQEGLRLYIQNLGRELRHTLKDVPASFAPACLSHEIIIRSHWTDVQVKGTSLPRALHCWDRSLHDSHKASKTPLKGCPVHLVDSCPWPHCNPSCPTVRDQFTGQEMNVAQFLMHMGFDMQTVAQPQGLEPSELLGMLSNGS
In words: TCF/LEF Reporter (Luciferase) cell line with exogenous WNT3a and Notum. Particulars: for restoration of Wnt signalling in the presence of Notum: concentration-response curves up to 10 μM. Format: cell-based. The procedure: Notum inhibitors 3–5 (Table 1, Table 2, Table 3, Table 4) were either purchased or prepared using established synthetic methods from readily available starting materials (Scheme 1). Where necessary, the synthesis of many of these amines (e.g. 6) have been reported previously and full details of their preparation have been included in the Experimental Section. Notum inhibition activity was determined using the standard Notum-OPTS biochemical assay using IC50 values. These values were used to compare relative activities with covalent inhibitors under carefully regulated assay conditions. Confirmed inhibitors were routinely screened in in vitro ADME assays. Selected inhibitors were screened for inhibition of Notum activity in a TCF/LEF Reporter (Luciferase) cell line with exogenous WNT3a and Notum, and soaked into Notum crystals to determine their binding modes and evidence of MoA. […]
as §3

A short description of data set [6]: Metabolite identification of 4y in mouse liver microsomes (LC-UV-MS). Type of data set: in vitro ADME. The following applies: 4y at 10 µM incubated with MLM at 37 °C for 60 min; share of total drug-related components. The procedure:
The test compound 4y at 10 µM was incubated with mouse liver microsomes (MLM) at 37 °C for 60 min. The positive control, 7-ethoxycoumarin (7-EC) at 10 µM, was run concurrently to assess Phase I metabolic activities in liver microsomes. […] After incubation, the samples were analysed by LC-UV-MS. The structures of the metabolites were proposed based on the interpretation of their MS and MS^2 data.
The relative abundance of 4y and each of the putative metabolites were calculated using peak area (peak area under the UV spectrum at 250-280 nm) of individual metabolite relative to the total area of all detected drug-related components (Table S6).

In data set [7] the target is T3, Notum (full length) (Homo sapiens, UniProt Q6P988).
T3 construct: Screening 4w and 4y in the biochemical assay using full length Notum and OPTS
T3 sequence (Q6P988 20-496): T2 sequence (Q6P988 20-496)
Kind of data set: Notum-OPTS biochemical assay, full length Notum. The protocol: as §4, §3

The nature of data set [8]: Permeability using MDR1-MDCKII cell monolayer. The following applies: dog, MDCK-MDR1, Table S3, mean n=2. Type of data set: in vitro ADME. The procedure: as §1, §2
Data set [9] relates to MDR1-MDCKII cell monolayer. In words: Permeability using MDR1-MDCKII cell monolayer. Type of data set: in vitro ADME. The following applies: Table 3; efflux ratio. The protocol: as §1, §2
Data set [10] relates to MDR1. In words: Permeability using MDR1-MDCKII cell monolayer. Type of data set: in vitro ADME. Particulars: dog. The procedure:
as §1, §2

Data set [11] can be described thus: Stability in mouse plasma. Type of data set: in vitro ADME.
Description: as §2

Data set [12] in a line: Stability in human liver microsomes. Format: in vitro ADME. The procedure: as §1, §2
Data set [13] can be described thus: Distribution coefficient LogD7.4, shake flask method. Type of data set: physicochemical. The following applies: pH 7.4; Table 3. The protocol: Molecular properties (MW, clogP) were calculated with ChemDraw Professional v16.0.1.4(77). Distribution coefficients (LogD7.4) were measured using the shake flask method.
Representative assay protocols have been described in detail.^1,^2

Setting [14] is: Notum (core, 81–451C330S), read-out: OPTS, IC50.
Setting [15] is: Table 2, mean ± s.d. of n = 4–12, >10 = 20–50% inhibition @ 10 μM, read-out: Notum IC50.
The mark [16] stands for this setting: Notum (core, 81–451C330S), restoration of Wnt signalling, read-out: TCF-LEF, EC50.
The mark [17] stands for this setting: Notum (full length), read-out: OPTS, IC50.

≈ marks a conversion by molar mass, not a printed value. Where “and” joins values, the source holds several entries; their conditions need not be identical. Equal values may be shown once. Read-outs that look alike come from different tables or passages of the source.

One may read the thermodynamic solubility as solubility found after equilibrating the solid with the medium. The term solubility denotes the concentration that dissolves in the medium under given conditions. A lower solubility goes with a poorly soluble substance. Consider `CC(=O)N1CCc2c1ccc(Cl)c2C(F)(F)F` [Compound 4v, 1-(5-Chloro-4-(trifluoromethyl)indolin-1-yl)ethan-1-one], for which, in data set [1], the solubility (thermodynamic) stood at 1.55 µg/mL (≈ 5.88 µM) and the solubility was determined as 1.6 µg/mL (≈ 6.07 µM). Besides, in data set [2], the “MLM Stability Cli” value is 650 µL/min/mg protein, the microsomal CLint at 1 h turned out to be 650 µL/min/mg and the half-life turned out to be 2.1 min. Moreover, the IC50 in data set [3] (setting [14]) worked out at 1.3 ± 0.3 nM. Further, the IC50 in [3] (setting [15]) turned out to be 1.3 ± 0.3 nM. The “assay interference or cell toxicity in the absence of Notum” value (“assay interference or cell toxicity” for short) in [4] was “not by assay interference or cell toxicity”. Besides, in data set [5] (setting [16]), the EC50 amounted to 28 ± 20 nM. Further, the “restoration of Wnt signalling in the presence of Notum” value (“restoration of Wnt signalling” below) in data set [5] is “restored Wnt signalling”.
As to `CC(=O)N1CC2(CC2)c2c(Cl)cccc21` [Compound 4y, 1-(4′-Chlorospiro[cyclopropane-1,3′-indolin]-1′-yl)ethan-1-one], in data set [1], the thermodynamic solubility stood at 0.186 µg/mL (≈ 0.839 µM) and the solubility turned out to be 0.2 µg/mL (≈ 0.902 µM). Besides, the “Relative Abundance (UV peak area %Total)” value in data set [6] is 30% and 30.48%. Moreover, in [2], the “MLM Stability Cli” value was 895 µL/min/mg protein, the microsomal CLint at 1 h came out at 900 µL/min/mg and the half-life came to 1.5 min. In [3] (setting [14]), the IC50 stood at 3.5 ± 0.6 nM. Also, in [3] (setting [15]), the IC50 was 3.5 ± 0.6 nM. In addition, the IC50 in [7] (setting [17]) was 11 ± 1.4 nM. The “assay interference or cell toxicity” value in [4] is recorded as “not by assay interference or cell toxicity”. Further, in data set [5] (setting [16]), the EC50 was 35 ± 13 nM. Moreover, in data set [5], the “restoration of Wnt signalling” value was “restored Wnt signalling”.
What is called Papp is the rate of passage across a membrane or cell layer, normalised by area and donor concentration. What is called efflux ratio is a quotient of directional permeabilities that is used to spot active efflux. The term logD denotes the decadic logarithm of the distribution of all forms, ionised or not, between an organic phase and buffer at a given pH. For the compound `CC(=O)N1CCc2c1ccc(Cl)c2Cl` [Compound 4w, 1-(4,5-Dichloroindolin-1-yl)ethan-1-one], in data set [1], the thermodynamic solubility is under 0.36 µg/mL. Further, the concentration in solution in [1] (solubility) came to 0.4 µg/mL (≈ 1.74 µM). Also, the “MLM Stability Cli” value in data set [2] was found to be 1150 µL/min/mg protein. The microsomal CLint at 1 h in data set [2] came out at 1200 µL/min/mg; in [12] (Table 3, read-out: HLM Clint), 140 µL/min/mg. The half-life was 1.2 min in data set [2]; over 280 min in data set [11] (Table S5, read-out: Mouse plasma Stability t1/2); over 240 min in data set [11] (read-out: mouse plasma stability t½); 10 min in data set [12] (human, read-out: HLM Stability t1/2). Also, the recovery in data set [8] (read-out: A to B % Recovery) was 75%; in data set [8] (read-out: B to A % Recovery), 81%. Besides, the “MDCK-MDR1 ER” value in [9] was 0.60. Moreover, the Papp in [10] (MDCK-MDR1, Table 3, apical to basal, read-out: MDCK-MDR1 AB Papp) is 350 nm/s; in data set [10] (MDCK-MDR1, Table 3, basal to apical, read-out: MDCK-MDR1 BA Papp), 210 nm/s; in data set [10] (MDCK-MDR1, Table S3, mean n=2, read-out: Apical to Basal Papp), 355 nm/s; in data set [10] (MDCK-MDR1, Table S3, mean n=2, read-out: Basal to Apical Papp), 211 nm/s. Moreover, in [10] (MDCK-MDR1, Table S3, mean n=2), the efflux ratio worked out at 0.59. In [12], the “HLM Stability Cli” value is listed as 138 µL/min/mg protein. In [13], this compound came in with a pH-dependent lipophilicity (logD) of 3.1. The IC50 in [3] (Figure S4A, Notum (81-451 C330S) OPTS, 4 of 11 curves shown, read-out: IC50, single concentration-response curve) is 2.8 nM and 3.7 nM and 2.3 nM and 3.1 nM; in data set [3] (setting [14]) it was 2.5 ± 0.6 nM; in data set [3] (setting [15]) it was 2.5 ± 0.6 nM; in data set [7] (Figure S4B, Notum (full length) OPTS, 3 of 3 curves shown, read-out: IC50, single concentration-response curve), 5.3 nM and 4.1 nM and 5.4 nM; in [7] (setting [17]), 4.9 ± 0.6 nM. In data set [3] (ligand efficiency from Notum OPTS IC50), this compound had an LE of 0.85. Further, the LLE in data set [3] (lipophilic ligand efficiency from Notum OPTS IC50 and clogP) came out at 5.9. Further, in data set [4], the “assay interference or cell toxicity” value is “not by assay interference or cell toxicity”. Further, the EC50 in data set [5] (Figure S4C, WNT3A (200 ng/mL), 6 of 6 curves shown, read-out: EC50, single concentration-response curve) was 5.5 nM and 4.3 nM and 15.2 nM and 39 nM and 29.1 nM and 36.8 nM; in [5] (setting [16]), 22 ± 14 nM. Besides, the “restoration of Wnt signalling” value in data set [5] was “restored Wnt signalling”.
